Series [1] is described as follows: Metabolic stability, human hepatocytes. It counts as in vitro ADME. As to conditions: cryopreserved hepatocytes. As to the method: (§1) NDD-713.HCl and -825.HCl were incubated (0.02, 0.1, or 0.5 μM at 37°C, 120 min) with human (XenoTech, Kansas City, KS, USA) or rat liver microsomes (BD Biosciences, Brea, CA, USA) at 0.4 mg/ml protein concentration. Metabolic reaction was initiated by addition of NADPH-regenerating system or NADPH-regenerating system with uridine diphosphate glucuronic acid. Samples were quenched at time points by acetonitrile addition. Control samples, which contained neither NADPH, nor uridine diphosphate glucuronic acid, were monitored for degradation. Compound concentrations were determined by ultraperformance LC-MS (UPLC-MS) relative to calibration standards that were prepared in quenched liver microsomes and fitted to exponential decay functions to determine first-order rate constants (k) for substrate depletion. These were used to calculate in vitro intrinsic clearance (CLint) values: CLint = k/microsomal protein content (0.4 mg protein/ml). Metabolic stability assays that used rat liver cytosol (BD Biosciences), human cryopreserved hepatocytes, or rat hepatocytes were carried out similarly. Average viable cell concentrations were determined by Trypan Blue exclusion methods (in the absence of test compounds). Studies were carried out by CDCO.

The subject of series [2] is HepG2 cells. Briefly: HepG2 cytotoxicity (CellTiter-Glo). Format: cell-based, human. The conditions noted are these: 24 h, even at the limits of aqueous solubility. Here is the method:
Human hepatocyte carcinoma cells (HepG2; European Collection of Cell Cultures, Salisbury, United Kingdom) were grown in accordance with their guidelines by using DMEM. Cells at a density of 30,000 cells/well in 96-well plates were incubated overnight (37°C, 5% CO2 atmosphere). Medium was then removed and replaced with DMEM that contained control or compounds (1, 10, and 100 μM; n = 2 per concentration) for 24 h before addition of 100 μl/well of CellTiter-Glo Reagent (Promega, Madison, WI, USA) for ATP measurement and shaken to induce cell lysis. Luminescence was quantified on an AnalystAD plate-reader (Molecular Devices, Sunnyvale, CA, USA). Thioridizine (known HepG2 cytotoxicity) was used as positive control. Study was carried out by BioFocus DPI (Saffron Walden, United Kingdom).
(In ATP-based viability assays light output follows the ATP content of the culture.)

Series [3] in a line: Metabolic stability, rat liver microsomes. Format: in vitro ADME. As to conditions: in the presence of NAD+, NADPH, or in the absence of cofactors. As to the method: as §1
A general note: Microsomes from liver hold many membrane-bound enzymes, among them those of drug oxidation.

In series [4] the target is 5-HT2A (Homo sapiens, UniProt P28223). Briefly: Cerep receptor radioligand-binding assay. The conditions noted are these: for Ki: concentration-response, Cheng-Prusoff. Here is the method: […]; Ki (inhibition constant) was calculated by using the Cheng-Prusoff equation from the mean of duplicate determinations in cell-based receptor radioligand-binding assays. Cerep in vitro pharmacology profiling service was used (see the Supplemental Data for a list of the assays used).
Chain of 5-HT2A (P28223 whole entry): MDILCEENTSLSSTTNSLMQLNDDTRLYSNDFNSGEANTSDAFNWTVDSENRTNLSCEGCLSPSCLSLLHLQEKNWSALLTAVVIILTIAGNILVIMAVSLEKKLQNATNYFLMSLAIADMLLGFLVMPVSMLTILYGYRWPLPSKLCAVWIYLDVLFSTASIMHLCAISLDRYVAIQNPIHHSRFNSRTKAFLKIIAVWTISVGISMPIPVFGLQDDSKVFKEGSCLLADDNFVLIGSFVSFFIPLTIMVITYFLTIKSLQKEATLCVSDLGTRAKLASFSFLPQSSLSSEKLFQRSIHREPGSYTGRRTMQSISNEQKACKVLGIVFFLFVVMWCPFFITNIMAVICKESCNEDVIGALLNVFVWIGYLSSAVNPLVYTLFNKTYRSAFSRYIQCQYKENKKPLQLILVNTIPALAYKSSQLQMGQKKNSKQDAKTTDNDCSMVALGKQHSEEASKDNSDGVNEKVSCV

The target in series [5] is hERG channels (Homo sapiens, UniProt Q12809). Put plainly: hERG automated patch-clamp electrophysiology. (Block of hERG is tested as a sign of cardiac risk.)
Chain of hERG channels (Q12809 whole entry): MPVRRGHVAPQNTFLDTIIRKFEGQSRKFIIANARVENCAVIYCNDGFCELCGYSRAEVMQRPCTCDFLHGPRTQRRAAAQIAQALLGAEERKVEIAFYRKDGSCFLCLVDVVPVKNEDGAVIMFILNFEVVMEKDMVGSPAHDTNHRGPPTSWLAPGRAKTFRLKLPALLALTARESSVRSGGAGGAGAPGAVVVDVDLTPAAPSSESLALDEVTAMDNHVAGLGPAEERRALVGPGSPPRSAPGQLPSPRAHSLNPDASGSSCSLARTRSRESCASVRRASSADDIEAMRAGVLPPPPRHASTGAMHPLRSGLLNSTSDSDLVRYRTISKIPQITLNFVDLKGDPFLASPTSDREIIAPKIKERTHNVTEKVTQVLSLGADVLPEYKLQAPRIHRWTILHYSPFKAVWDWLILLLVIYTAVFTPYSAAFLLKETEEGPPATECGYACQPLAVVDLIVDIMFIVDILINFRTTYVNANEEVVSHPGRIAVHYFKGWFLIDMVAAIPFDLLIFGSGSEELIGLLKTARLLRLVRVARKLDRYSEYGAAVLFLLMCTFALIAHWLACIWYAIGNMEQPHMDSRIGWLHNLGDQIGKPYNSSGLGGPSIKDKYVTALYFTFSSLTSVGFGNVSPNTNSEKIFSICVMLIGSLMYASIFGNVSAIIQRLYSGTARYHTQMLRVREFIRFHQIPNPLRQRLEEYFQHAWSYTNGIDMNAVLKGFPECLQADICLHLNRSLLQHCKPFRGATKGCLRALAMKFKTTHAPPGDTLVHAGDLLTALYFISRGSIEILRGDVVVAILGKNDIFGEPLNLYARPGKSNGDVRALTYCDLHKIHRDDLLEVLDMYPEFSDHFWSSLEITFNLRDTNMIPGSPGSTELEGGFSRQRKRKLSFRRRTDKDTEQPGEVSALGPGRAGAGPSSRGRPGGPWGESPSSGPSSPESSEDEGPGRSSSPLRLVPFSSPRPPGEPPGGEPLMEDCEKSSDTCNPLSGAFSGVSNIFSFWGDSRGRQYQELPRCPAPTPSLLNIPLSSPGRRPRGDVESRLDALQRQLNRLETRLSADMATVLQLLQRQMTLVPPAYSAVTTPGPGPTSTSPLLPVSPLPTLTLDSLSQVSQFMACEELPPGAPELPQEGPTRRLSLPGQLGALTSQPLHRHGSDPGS
The target of series [6] is T1, CYP2C19 (Homo sapiens, UniProt P33261).
T1 construct: in human liver microsomes; tissue batch 0910251; host or cells: human liver microsomes
T1 sequence (P33261 whole entry): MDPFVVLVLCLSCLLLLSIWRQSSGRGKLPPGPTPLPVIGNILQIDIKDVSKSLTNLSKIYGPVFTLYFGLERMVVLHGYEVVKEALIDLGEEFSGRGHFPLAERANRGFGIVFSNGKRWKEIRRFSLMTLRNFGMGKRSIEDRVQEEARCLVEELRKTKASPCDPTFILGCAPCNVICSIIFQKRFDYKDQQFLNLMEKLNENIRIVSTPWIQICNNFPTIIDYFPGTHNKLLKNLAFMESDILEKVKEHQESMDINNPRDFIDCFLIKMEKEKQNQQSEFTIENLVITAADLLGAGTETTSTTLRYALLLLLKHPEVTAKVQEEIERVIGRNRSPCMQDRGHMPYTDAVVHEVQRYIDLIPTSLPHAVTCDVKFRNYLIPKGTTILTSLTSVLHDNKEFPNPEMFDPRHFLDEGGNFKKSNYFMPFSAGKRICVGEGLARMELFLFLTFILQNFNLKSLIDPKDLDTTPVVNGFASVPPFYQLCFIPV
Put plainly: P450 inhibition in human liver microsomes. It counts as in vitro ADME. The conditions noted are these: 0.25–20 μM, hydrochloride salts used. Here is the method: (§2) Concentrations of NDD-713.HCl and -825.HCl (0.25–20 μM) were incubated in triplicate (37°C for 4–40 min) with substrates specific for individual P450 isoforms (see Supplemental Data for full details) in human liver microsomes (batch 34689 for CYP1A2 and CYP3A4; batch 0910251 for CYP2C9, CYP2C19, and CYP2D6) at protein concentrations of 0.4 mg/ml (CYP1A2, CYP2C9, CYP2D6 and CYP3A4/5) or 1.0 mg/ml (CYP2C19) and a total organic solvent concentration <1%. Reaction was initiated by addition of NADPH-regenerating system and samples were quenched by addition of ice-cold acetonitrile, which contained 0.15 μg/ml diazepam as an internal standard, before determination of the concentration of specific metabolites by LC-MS. Compound IC50 values (and positive control) for each P450 isoform was assessed according to %reduction in formation of the specific metabolite (maximal metabolite formation occurring in the absence of inhibitor). […] Control samples were included to confirm that the LC-MS assay was not affected by test compounds (and potential metabolites). Studies were carried out by CDCO.

Series [7] deals with CYP3A4/5. Briefly: P450 inhibition in human liver microsomes. It counts as in vitro ADME. As to conditions: 0.25–20 μM, hydrochloride salts used. Here is the method: as §2
Series [8] has as its target T2, CYP2C9 (Homo sapiens, UniProt P11712).
T2 construct: in human liver microsomes; tissue batch 0910251; host or cells: human liver microsomes
Put plainly: P450 inhibition in human liver microsomes. It counts as in vitro ADME. As to conditions: 0.25–20 μM, hydrochloride salts used. Here is the method: as §2

In series [9] the target is T3, CYP1A2 (Homo sapiens, UniProt P05177).
T3 construct: in human liver microsomes (batch 34689 for CYP1A2 and CYP3A4; batch 0910251 for CYP2C9, CYP2C19, and CYP2D6); tissue batch 34689; host or cells: human liver microsomes
T3 sequence (P05177 whole entry): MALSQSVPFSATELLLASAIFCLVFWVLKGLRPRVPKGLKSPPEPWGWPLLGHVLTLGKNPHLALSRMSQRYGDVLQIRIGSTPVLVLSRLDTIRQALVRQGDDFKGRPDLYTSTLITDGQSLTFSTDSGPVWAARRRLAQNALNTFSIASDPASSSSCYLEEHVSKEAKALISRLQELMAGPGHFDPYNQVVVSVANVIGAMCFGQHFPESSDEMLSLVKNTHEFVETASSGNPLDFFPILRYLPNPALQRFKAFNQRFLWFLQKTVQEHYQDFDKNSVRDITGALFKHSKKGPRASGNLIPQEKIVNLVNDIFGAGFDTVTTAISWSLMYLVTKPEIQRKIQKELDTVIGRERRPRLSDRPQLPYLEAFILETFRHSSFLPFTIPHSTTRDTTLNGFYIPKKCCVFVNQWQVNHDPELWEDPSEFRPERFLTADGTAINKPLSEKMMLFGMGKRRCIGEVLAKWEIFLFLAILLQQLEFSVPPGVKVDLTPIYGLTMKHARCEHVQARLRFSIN
Briefly: P450 inhibition in human liver microsomes. It counts as in vitro ADME. As to conditions: 0.25–20 μM, hydrochloride salts used. As to the method:
as §2

Series [10] concerns the target T4, human β3-AR (Homo sapiens, UniProt P13945).
T4 construct: expressed in transfected cells
Put plainly: Radioligand binding at human β3-AR. As to the method: Chinese hamster ovary (CHO) cells that stably express human β1-ARs (CHO-β1: 1146 fmol/mg protein), human β2-ARs (CHO-β2: 466 fmol/mg protein), or human β3-ARs (CHO-β3: 790 fmol/mg protein) were grown as previously described ([11]). Human bronchial smooth muscle cells were obtained from Lonza (Basel, Switzerland) and grown in manufacturer media. Rat β-AR binding experiments (DNA from cDNA Resource Centre, Bloomsburg, PA, USA) were conducted by using transiently transfected CHO cells ([44]).
Confluent cells were examined (96-well plates, 2 h incubation at 37°C) as previously described ([11]) with ^3H-CGP12177 at 0.43–3.03 nM. Propranolol (10 μM) defined nonspecific binding. Kd values were derived from IC50 values by using the Cheng-Prusoff equation as previously described ([11]).

The target in series [11] is T4, human β3-AR. Briefly: Antagonism of cimaterol-induced 3H-cAMP accumulation in CHO-β3 cells. Format: cell-based. As to conditions: cimaterol agonist, mean ± SEM, read-out: Log Kd,β3 (converted). As to the method: Confluent cells were examined (24-well plates, 5 h incubation at 37°C) as described in Baker ([45]). Antagonist Kd values were calculated from a rightward shift of the agonist concentration response curve by using the Gaddum equation as previously described ([46]).

This note sets out measurements from paper PMC5471521, “Novel selective β1-adrenoceptor antagonists for concomitant cardiovascular and respiratory disease” (The FASEB Journal, 2017).

Some results are limits rather than exact numbers.

T4 sequence (P13945 whole entry): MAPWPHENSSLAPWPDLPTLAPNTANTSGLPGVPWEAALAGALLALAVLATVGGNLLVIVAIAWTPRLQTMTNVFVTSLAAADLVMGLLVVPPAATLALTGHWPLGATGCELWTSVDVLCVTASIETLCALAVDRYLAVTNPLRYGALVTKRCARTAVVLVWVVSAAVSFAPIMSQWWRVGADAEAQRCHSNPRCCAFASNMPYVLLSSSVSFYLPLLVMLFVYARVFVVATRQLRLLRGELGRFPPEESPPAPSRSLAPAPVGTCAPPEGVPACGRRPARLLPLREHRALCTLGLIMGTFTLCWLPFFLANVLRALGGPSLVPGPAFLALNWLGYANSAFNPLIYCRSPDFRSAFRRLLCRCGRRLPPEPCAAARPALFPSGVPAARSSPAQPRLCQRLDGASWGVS
T2 sequence (P11712 whole entry): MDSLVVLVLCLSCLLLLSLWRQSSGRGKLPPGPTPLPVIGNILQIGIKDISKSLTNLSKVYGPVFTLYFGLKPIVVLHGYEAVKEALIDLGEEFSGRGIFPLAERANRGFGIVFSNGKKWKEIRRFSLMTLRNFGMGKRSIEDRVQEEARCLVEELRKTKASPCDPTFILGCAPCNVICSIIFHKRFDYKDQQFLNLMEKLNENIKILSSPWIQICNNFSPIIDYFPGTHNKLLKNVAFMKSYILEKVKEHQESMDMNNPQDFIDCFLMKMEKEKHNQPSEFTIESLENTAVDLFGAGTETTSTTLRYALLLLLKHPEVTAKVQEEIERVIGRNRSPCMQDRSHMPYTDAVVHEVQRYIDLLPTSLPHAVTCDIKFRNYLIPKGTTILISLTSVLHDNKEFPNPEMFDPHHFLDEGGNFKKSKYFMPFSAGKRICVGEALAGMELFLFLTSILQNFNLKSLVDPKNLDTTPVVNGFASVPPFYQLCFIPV

As usually defined, the hepatocyte CLint is the rate of metabolic loss divided by the concentration. Low readings indicate greater metabolic stability, high ones faster metabolism. By microsomal CLint is commonly meant the capacity of the preparation to metabolise the compound, expressed as a volume cleared per time. As a reminder, the Ki is a dissociation constant, usually derived from enzyme kinetics or from competition with a known ligand. A word on the IC50: it is the point on the concentration scale where inhibition reaches its midpoint. What is called Kd is the free concentration of one partner at which half of the binding sites on the other are occupied at equilibrium, for simple one-to-one binding. In [1], `NC(=O)c1ccc(OCCNC[C@H](O)COc2ccc3c(c2)OC[C@@H](COCC2CC2)O3)cc1` [NDD-713] showed a hepatocyte CLint of less than 6 µL/min/1e6 cells. The “Cytotoxic effects in HepG2 cell viability assay” value in [2] is on record as “no cytotoxic effects”. The microsomal CLint in [3] is less than 0.1 µL/min/mg. The “β1-selectivity over the 5-HT2A receptor” value in series [4] is 510 fold. For the same compound, affinity in [4] was put at a Ki of 7.7 µM. Also, the IC50 is greater than 10 µM in [5]; greater than 20 µM in series [6]; greater than 20 µM in [7]; greater than 20 µM in [8]; greater than 20 µM in series [9]. Further, the “Affinity at human β3-AR” value in series [10] is “so low that accurate measurements were not possible”. Besides, in [11], the Kd is 3.39 µM.

The compound `O=C1NCc2cc(OCCNC[C@H](O)COc3ccc4c(c3)OC[C@@H](COCC3CC3)O4)ccc21` [NDD-825] registered an intrinsic clearance (hepatocyte CLint) in series [1] of 6 µL/min/1e6 cells. The “Cytotoxic effects in HepG2 cell viability assay” value in series [2] is on record as “no cytotoxic effects”. The microsomal CLint in series [3] came to 0.18 ± 0.2 µL/min/mg. In addition, in [4], the “β1-selectivity over the 5-HT2A receptor” value worked out at 1115 fold. In series [4], this compound gave a Ki of 5.8 µM. In addition, the IC50 was greater than 10 µM in [5]; greater than 20 µM in [6]; greater than 20 µM in [7]; greater than 20 µM in series [8]; greater than 20 µM in [9]. In [10], the “Affinity at human β3-AR” value is “so low that accurate measurements were not possible”. Moreover, the dissociation constant Kd in series [11] is 1.91 µM.
